Our source for the GI50 and TGI values is PubChem BioAssay (NCI).

What all share (experiment): NCI-60 cell line screen, 48 h
In assay [1] the test system is MDA-MB-435.
Assay [2] deals with DU-145 prostate.
Assay [3] deals with KM20L2 colon.

Where “and” joins values, the source holds several entries; their conditions need not be identical. Equal entries are not always repeated.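 All cell lines were grown in 96-well plates and treated with compound for 48 hours. GI50 marks 50% less growth. TGI denotes the concentration required for complete inhibition of growth.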 A value given as a limit tells only on which side of the number the result lay.

For the molecule `O=P([O-])(O)OP(=O)([O-])O.[NH-][C@@H]1CCCC[C@H]1[NH-].[Pt+4]`, in assay [1], the GI50 was 11800 nM and 4040 nM; the TGI is > 100 µM and 27.4 µM. Besides, in assay [2], the GI50 is 25900 nM and 12200 nM; the TGI was greater than 100 µM.

Take `CCCN1CCN(c2ccc3nc(-c4ccc5nc(-c6cc(OC)ccc6OC)[nH]c5c4)[nH]c3c2)CC1`: in assay [1], the GI50 was 1790 nM and the TGI is 3.24 µM. Also, in assay [2], the GI50 is 1890 nM and the TGI is 3.4 µM.

With `NC(=O)c1ccc2c(-c3ccnc(NCCCO)n3)c(-c3ccc(F)cc3)nn2c1`, in assay [1], the GI50 was greater than 18300 nM and the TGI is greater than 25 µM. Besides, in assay [2], the GI50 was greater than 22800 nM and the TGI was greater than 25 µM.

With `COC(=O)c1c2c(c(C)[n+]([O-])c1C)C(=O)C=C(NCc1ccc(OC)cc1)C2=O`, in assay [1], the GI50 is 598 nM and the TGI stood at 1.15 µM. For the same molecule, in assay [2], the GI50 was 2320 nM and the TGI turned out to be 5.89 µM.

Regarding `COc1cc2cc(C(=O)Nc3cc(N)c4ccccc4c3CCCl)[nH]c2c(OC)c1OC`, the GI50 in assay [1] is 48.3 nM; in assay [2] it was 8.95 nM. In addition, the results for the TGI in assay [1] and in assay [2] were 0.159 µM and 0.339 µM, respectively.

Regarding `CN1CCCCCC(=N\O)/C(=N/O)CCCCC1`, the TGI in assay [1] and in assay [2] was greater than 100 µM in each case.

Regarding `O=CN1N=C(c2ccc(Cl)cc2)CC1c1cccc(Nc2ccnc3cc(Cl)ccc23)c1` (centres undefined), in assay [1], the GI50 was 377 nM and the TGI is 17.2 µM. Also, in assay [2], the GI50 is 2800 nM and the TGI is greater than 100 µM.

Turning to `O=C(CC12CC3CC(CC(C3)C1)C2)NCCOCCOCCOCCNC(=O)c1cc2c(o1)C(=O)c1ccccc1C2=O`, in assay [1], the GI50 was 200 nM and the TGI was 0.392 µM. Moreover, in assay [2], the GI50 is 407 nM and the TGI amounted to 1.28 µM.

Turning to `C=CCN(CC=C)C(=O)c1cc(C)nc2c1c(=O)n(-c1ccccc1)c(=O)n2CC(O)CN1CCN(c2ncccn2)CC1` (centres undefined), in assay [1], the GI50 was greater than 100000 nM and the TGI was greater than 100 µM. In assay [2], the GI50 was greater than 100000 nM and the TGI was greater than 100 µM.

With `CC1=C2C[C@H]3[C@@H](CC=C4C[C@@H](O)CC[C@@]43C)[C@@H]2CC[C@]12O[C@@H]1C[C@H](C)CN[C@H]1[C@H]2C`, the GI50 was > 50000 nM and 17200 nM in assay [1]; 27900 nM and 25800 nM in assay [2]. Moreover, the TGI in assay [1] was > 50 µM and 42.1 µM; in assay [2] it was 50 µM and 61.6 µM.

`COc1cc2c(Oc3ccc4[nH]c(C)cc4c3F)ccnc2cc1OCC1(N)CC1`: the GI50 is 310 nM in assay [1] and 3670 nM in assay [2]. The TGI in assay [1] was 1.21 µM; in assay [2] it was greater than 100 µM.

With `c1ccc2c(c1)-c1ccccc1C2N1CC2CCC(CC2)C1`, the TGI worked out at 73.4 µM in assay [1] and 92 µM in assay [2].

As for `Cc1cccc(Cl)c1NC(=O)/C=C/c1ccccc1`, the TGI in assay [1] and in assay [2] was greater than 100 µM throughout.

On to `O=C([O][Hg][CH2]C1COCC([CH2][Hg][O]C(=O)c2ccccc2)O1)c1ccccc1` (centres undefined), for which, in assay [1], the GI50 is 14200 nM and the TGI worked out at 30.9 µM. Besides, in assay [2], the GI50 is 15200 nM and the TGI turned out to be 28.7 µM.

For the molecule `Cc1cc(N2CCCC2)nc(NC2CCCC(Nc3ccnc4cc(Cl)ccc34)C2)n1` (centres undefined), the GI50 in assay [1] is 1560 nM; in assay [2], 1240 nM. Further, the TGI in assay [1] was 3.11 µM; in assay [2], 2.77 µM.

With `O=[N+]([O-])c1ccc(N=Nc2c(O)ccc3ccccc23)cc1`, the TGI in assay [1] and in assay [2] was greater than 100 µM in each case.

Take `CC1(C)CC(n2cnc(-c3ccc(F)cc3)c2-c2ccnc(N)n2)CC(C)(C)N1`: the GI50 in assay [1] and in assay [2] was greater than 25000 nM throughout. Further, the TGI in assay [1] and in assay [2] was greater than 25 µM in each case.

Take `Cc1cc(I)cc(CN(C)CCN2CCCC2)c1O`: the GI50 in assay [1] is 18300 nM; in assay [2] it was 32300 nM. Further, the TGI in assay [1] was 42.4 µM; in assay [2], greater than 100 µM.

Take `O=C1c2cc([N+](=O)[O-])ccc2-c2cccc(F)c21`: the TGI in assay [1] and in assay [2] was greater than 100 µM in each case.

Consider `C=CCC(C(=O)O)c1ccccc1` (centres undefined), for which the TGI in assay [1] and in assay [2] was greater than 100 µM each time.

Turning to `Cc1ccc(-c2nc(N)nc3c2nnn3Cc2cccc(CO[C@H]3CCOC3)n2)o1`, the GI50 in assay [1] and in assay [2] was greater than 100000 nM each time. For the same molecule, the TGI in assay [1] and in assay [2] was greater than 100 µM each time.

With `O=C1NC(=S)NC(=O)C1=Cc1cccc2cc3ccccc3cc12`, the TGI came out at 4.65 µM in assay [1] and 3.63 µM in assay [2].

Take `COc1ccc2c(c1)OC1=C(C(=O)OC1)C2c1cc(OC)c(OC)c(OC)c1` (centres undefined): the GI50 in assay [1] is 104 nM; in assay [2], 529 nM. Besides, the values for the TGI in assay [1] and in assay [2] were 0.358 µM and greater than 42.4 µM, respectively.

For the molecule `CC[Si](CC)(CC)OC[C@]1([C@@H]2COC(C)(C)O2)CC=CC(=O)O1`, in assay [1], the GI50 was 36400 nM and the TGI was greater than 100 µM. For the same molecule, in assay [2], the GI50 is 82900 nM and the TGI is greater than 100 µM.

Consider `Nc1cc(-c2cccc(OC(F)(F)F)c2)nc2ccc(N3CCCC3)cc12`, for which, in assay [1], the GI50 is less than 10.5 nM; the TGI is 0.0455 µM and 0.0346 µM and 0.034 µM. In assay [2], the GI50 was 45.8 nM and 44.6 nM and 37.7 nM; the TGI is 13.2 µM and > 100 µM and > 57.8 µM.

Consider `Cc1cc(N2CCN(c3ccnc4cc(Cl)ccc34)CC2)nc(NC2CCCCC2)n1`, for which, in assay [1], the GI50 was 1490 nM and the TGI came to 2.96 µM. Further, in assay [2], the GI50 is 3510 nM and the TGI stood at 11.2 µM.

For the molecule `C[C@@H]1N=C(c2ccc(Br)cc2)Nc2nc3ccccn3c2C1=O`, in assay [1], the GI50 is 1330 nM and the TGI is 7.1 µM. In assay [2], the GI50 was 23200 nM and the TGI is greater than 100 µM.

With `O=C(Nc1ccc(F)cc1F)c1cc(Br)ccc1O`, in assay [1], the GI50 is 2820 nM and the TGI was 11.9 µM. In assay [2], the GI50 is 3850 nM and the TGI was greater than 100 µM.

As to `COc1cccc(-c2nc3sccn3c2-c2ccnc(NCCNS(=O)(=O)c3ccccc3)c2)c1`, in assay [1], the GI50 is 3100 nM and the TGI is greater than 100 µM. In addition, in assay [2], the GI50 was 2980 nM and the TGI was greater than 100 µM.

Consider `c1cc(OCCN2CCCCC2)ccc1CNc1ccc2nc(CCC3CCCCC3)[nH]c2c1`, for which, in assay [1], the GI50 is 1630 nM and the TGI was 3.09 µM. Besides, in assay [2], the GI50 is 3330 nM and the TGI stood at 11.5 µM.

In the case of `COc1ccc(C2=C(c3ccc(OC)c(OC)c3)C(=O)OC2)cc1`, the GI50 in assay [1] was less than 46.3 nM. For the same molecule, in assay [2], the GI50 was 185 nM and the TGI was greater than 100 µM.

Take `O=C([CH-]C(=O)c1ccccc1)c1ccccc1.O=C([CH-]C(=O)c1ccccc1)c1ccccc1.O=C([CH-]C(=O)c1ccccc1)c1ccccc1.[OH3+].[Y+3]`: the GI50 in assay [3] is 5.92 µM.

Turning to `O=c1[nH]ccc2nc(N3CCC(O)CC3)nc(Nc3cccc(C(F)(F)F)c3)c12`, in assay [1], the GI50 is 1290 nM and the TGI came to 3.55 µM. Also, in assay [2], the GI50 is 1560 nM and the TGI stood at 19.3 µM.

In the case of `CN(C)C1CCN(C(=O)c2ccc(NC(=O)Nc3ccc(-c4nc(N5CCOCC5)nc(N5CCOCC5)n4)cc3)cc2)CC1`, in assay [1], the GI50 was 14.8 nM and 13 nM and 22.1 nM; the TGI was 0.133 µM and 0.284 µM and 0.324 µM. In assay [2], the GI50 is 15.7 nM and 15.6 nM and 25.8 nM; the TGI was 14.6 µM and 2.5 µM and 7.51 µM.

For the molecule `COc1ccc2c(CN3CCC[C@H]3C(=O)O)cc3cc4c(cc3c2c1)OCO4`, in assay [1], the GI50 is 14700 nM and the TGI came to 30.4 µM. In assay [2], the GI50 is 19700 nM and the TGI was greater than 100 µM.

`Cc1cc2cc3c(C)cc(=O)oc3c(C)c2o1`: the TGI in assay [1] and in assay [2] was greater than 100 µM in each case.

On to `C=C[C@H]1CCC/C=C/[C@@H]2C[C@H](O)C[C@H]2[C@H](O)/C=C/C(=O)O1`, for which, in assay [1], the GI50 is 43 nM and the TGI is greater than 100 µM. In addition, in assay [2], the GI50 is 77.1 nM and the TGI was greater than 100 µM.

As for `COc1c(Cl)c2c(c(OC)c1OC)-c1ccc(SC)c(=O)cc1[C@@H](NC(=O)OCC(F)(F)F)CC2`, in assay [1], the GI50 is less than 10 nM and the TGI is less than 0.01 µM. Moreover, in assay [2], the GI50 was less than 10 nM and the TGI was 0.871 µM.

For `C=C(C)CN(CC#N)CC(=C)C`, the TGI in assay [1] and in assay [2] was greater than 100 µM in each case.
